GI50 and TGI data for nine molecules are collected here from PubChem BioAssay (NCI).

What is called GI50 is the concentration at which growth is held to half of that of the control. Usually TGI stands for the concentration giving total growth inhibition.

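All cell lines were grown in 96-well plates and treated with compound for 48 hours. Here, GI50 denotes the concentration required for 50% inhibition of growth. TGI: total growth inhibition.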

Among the test systems are HOP-92 NSCLC; HT29 colon; IGROV1 ovarian; MDA-MB-435; NCI-H460 lung; RPMI-8226 leukemia; SK-MEL-2 melanoma; A498 renal.
Assay in all cases: DTP human tumour cell line panel, 48 h

Regarding `CN(C)CCCC1(c2ccc(F)cc2)OCc2cc(-c3ccc4cc[nH]c4c3)ccc21` (stereo not drawn), the GI50 in the assay with HOP-92 NSCLC is 2.28 µM; with HT29 colon it was 2.33 µM; in the assay with IGROV1 ovarian, 1.73 µM; in the assay on MDA-MB-435, 1.73 µM; with NCI-H460 lung, 1.79 µM; in the assay with RPMI-8226 leukemia, 2.5 µM. In addition, the GI50 with SK-MEL-2 melanoma was 2.19 µM. The TGI turned out to be 7.9 µM in the assay on HOP-92 NSCLC; 5.93 µM in the assay with HT29 colon; 3.61 µM in the assay on IGROV1 ovarian; 3.23 µM in the assay with MDA-MB-435; 3.49 µM in the assay on NCI-H460 lung; 6.04 µM in the assay with RPMI-8226 leukemia. In addition, the TGI in the assay with SK-MEL-2 melanoma came out at 4.72 µM.

For `C[C@]12CC[C@H]3[C@@H](C[C@@H]4SC(Nc5cccc(F)c5)=N[C@@]45CC(=O)CC[C@]35C)[C@@H]1CCC2=O`, the GI50 in the assay with A498 renal is 2.16 µM; with HOP-92 NSCLC, 2.25 µM; in the assay on HT29 colon, 1.49 µM; in the assay on IGROV1 ovarian, 1.89 µM; with MDA-MB-435, 2.74 µM; in the assay with NCI-H460 lung, 2.52 µM. The values for the GI50 with RPMI-8226 leukemia and in the assay on SK-MEL-2 melanoma were 0.865 µM and 1.86 µM, respectively. In addition, the TGI in the assay on A498 renal is 6.77 µM; in the assay with HOP-92 NSCLC, 4.17 µM; with HT29 colon, 3.51 µM; in the assay on IGROV1 ovarian, 3.83 µM; in the assay with MDA-MB-435, 13.1 µM; in the assay with NCI-H460 lung, 5.58 µM. Also, the TGI worked out at 3.9 µM in the assay on RPMI-8226 leukemia and 5.2 µM in the assay on SK-MEL-2 melanoma.

Consider `O=C(Oc1ccc([N+](=O)[O-])cc1)N1CCC(C(O)(c2ccc3c(c2)OCO3)c2ccc3c(c2)OCO3)CC1`, for which the GI50 in the assay with A498 renal was more than 100 µM; with HOP-92 NSCLC, more than 52.3 µM; in the assay on HT29 colon, more than 100 µM; in the assay with IGROV1 ovarian, more than 100 µM; in the assay with MDA-MB-435 it was more than 100 µM; in the assay with NCI-H460 lung, more than 100 µM. Besides, the GI50 in the assay with RPMI-8226 leukemia and in the assay with SK-MEL-2 melanoma was more than 100 µM each time. Besides, the TGI in the assay on A498 renal, with HOP-92 NSCLC, in the assay with HT29 colon, in the assay with IGROV1 ovarian, with MDA-MB-435 and in the assay with NCI-H460 lung was more than 100 µM in each case. The TGI in the assay with RPMI-8226 leukemia and in the assay on SK-MEL-2 melanoma was more than 100 µM each time.

As to `COCCOC(C)C(/C=N/NC(N)=S)=N/NC(N)=S` (stereo not drawn), the GI50 is more than 100 µM in the assay on A498 renal; more than 100 µM in the assay on HOP-92 NSCLC; more than 100 µM in the assay on MDA-MB-435; more than 100 µM in the assay on NCI-H460 lung; 0.0725 µM with RPMI-8226 leukemia; more than 100 µM in the assay on SK-MEL-2 melanoma. Also, the concentration for total growth inhibition (TGI) with A498 renal, in the assay with HOP-92 NSCLC, in the assay with MDA-MB-435, with NCI-H460 lung, with RPMI-8226 leukemia and in the assay on SK-MEL-2 melanoma was more than 100 µM each time.

Consider `O=[N+]([O-])c1ccc(N(CCO)CCO)c2c1no[n+]2[O-]`, for which the GI50 in the assay on A498 renal is 1.58 µM; with HOP-92 NSCLC it was 1.22 µM; in the assay on HT29 colon it was 1.84 µM; in the assay on IGROV1 ovarian it was 1.75 µM; with MDA-MB-435, 1.51 µM; with NCI-H460 lung, 0.645 µM. The GI50 was 1.22 µM in the assay on RPMI-8226 leukemia and 1.8 µM in the assay with SK-MEL-2 melanoma. Further, the TGI was 3.68 µM in the assay with A498 renal; 5.82 µM with HOP-92 NSCLC; 10.7 µM in the assay with HT29 colon; 7.42 µM in the assay on IGROV1 ovarian; 4.87 µM in the assay on MDA-MB-435; 2.72 µM in the assay on NCI-H460 lung. The TGI in the assay with RPMI-8226 leukemia is 4.08 µM; with SK-MEL-2 melanoma it was 4.78 µM.

For `Clc1ccc2c(NCCCN3CCN(c4nc(-n5ccnc5)nc5ccccc45)CC3)ccnc2c1`, the GI50 in the assay with A498 renal was 2.55 µM; with HOP-92 NSCLC, 14.3 µM; in the assay on HT29 colon, 1.88 µM; in the assay on IGROV1 ovarian it was 2.96 µM; in the assay on MDA-MB-435, 1.74 µM; with RPMI-8226 leukemia, 2.21 µM. Also, the GI50 with SK-MEL-2 melanoma is 12.3 µM. Moreover, the TGI with A498 renal is more than 26.8 µM; in the assay on HOP-92 NSCLC it was more than 62.3 µM; with HT29 colon, 4.47 µM; in the assay on IGROV1 ovarian, 23.7 µM; in the assay with MDA-MB-435, 3.2 µM; in the assay on RPMI-8226 leukemia, 5.19 µM. Further, in the assay with SK-MEL-2 melanoma, the TGI is more than 22.1 µM.

Regarding `O=S(=O)(Nc1ccc(Cl)c(C(F)(F)F)c1)c1ccc(-c2cnc(C3CC3)o2)cc1`, the concentration for 50% growth inhibition (GI50) in the assay on A498 renal is 0.0814 µM; with HOP-92 NSCLC, 1.04 µM; in the assay on HT29 colon, 0.157 µM; with IGROV1 ovarian, 0.507 µM; with MDA-MB-435, 0.0658 µM; with NCI-H460 lung it was 0.102 µM. The GI50 is 1.35 µM in the assay on RPMI-8226 leukemia and 0.343 µM in the assay on SK-MEL-2 melanoma. Further, the concentration for total growth inhibition (TGI) in the assay on A498 renal amounted to 1.23 µM; with HOP-92 NSCLC it was 4.16 µM; in the assay on IGROV1 ovarian it was 5.96 µM; in the assay with MDA-MB-435, 0.606 µM; in the assay with NCI-H460 lung it was 10 µM; in the assay with RPMI-8226 leukemia, 5.64 µM. The molecule further showed a concentration for total growth inhibition (TGI) with SK-MEL-2 melanoma of 3.67 µM.

With `Cc1cc(NC(=O)CCc2ccc(N3C(N)=NC(N)=NC3(C)C)cc2)ccc1S(=O)(=O)F`, the GI50 in the assay on A498 renal is more than 23.7 µM; in the assay on HOP-92 NSCLC, more than 39 µM; in the assay on HT29 colon it was less than 0.0374 µM; in the assay with MDA-MB-435, 0.18 µM; in the assay on NCI-H460 lung, less than 0.0246 µM; with RPMI-8226 leukemia it was 0.464 µM. The GI50 in the assay on SK-MEL-2 melanoma is more than 55.9 µM. Also, the TGI is more than 100 µM with A498 renal; more than 100 µM with HOP-92 NSCLC; more than 100 µM in the assay with HT29 colon; more than 100 µM in the assay on IGROV1 ovarian; more than 100 µM with MDA-MB-435; 36.1 µM in the assay on NCI-H460 lung. The TGI with RPMI-8226 leukemia and with SK-MEL-2 melanoma was more than 100 µM each time.

On to `O=c1cccc(C#CCCCCOC2CCCO2)o1` (stereo not drawn), for which the GI50 is 4.09 µM in the assay on A498 renal; 2.17 µM in the assay with HOP-92 NSCLC; 16.5 µM in the assay with HT29 colon; 37.2 µM in the assay with IGROV1 ovarian; 16.1 µM with MDA-MB-435; 6.81 µM in the assay on NCI-H460 lung. For the same molecule, the figures for the GI50 in the assay on RPMI-8226 leukemia and in the assay with SK-MEL-2 melanoma were 2.93 µM and 12.7 µM, respectively. Moreover, the TGI with HOP-92 NSCLC is 11.5 µM; in the assay with HT29 colon, more than 60.5 µM; with IGROV1 ovarian it was more than 88.8 µM; in the assay with MDA-MB-435, 44.8 µM; in the assay on NCI-H460 lung it was more than 100 µM; in the assay on RPMI-8226 leukemia, 63.7 µM. In the assay on SK-MEL-2 melanoma, this molecule showed a TGI of more than 50.4 µM.
